According to patent US20220039390A1, “USE OF […] FOR C[…] VEGETATION IN BETA VULGARIS GROWING AREAS” (KWS SAAT SE & Co. KGaA, priority 2018, published 2022):

What was measured:
[1] = acid form, 25° C.; cited from earlier work
[2] = tested on: sugar beet (Beta vulgaris); assay: Glyphosate selection of mutagenized (EMS/ENU) M2 sugar beet plants, field spray then greenhouse treatment; type: in vivo; details: 600 g/ha glyphosate acid equivalent
Description: 6 kg seeds of sugar beet elite line T807 (3BT1760, MO population) were mutagenized with 0.5% EMS and 0.3% and 0.5%, respectively ENU, and subsequently drilled for steck production. Stecks were replanted for seed production occupying an area of 5.8 ha. M1 population sizes were 75,000 seed producing plants for EMS and 19,000 plants for ENU mutagenized seeds. The following M2 seed amounts (values given for purified seed) has been obtained: 240 kg for 0.5% EMS (idents A and B), 548 kg for 0.3% ENU (idents C and D), and 256 kg 0.5% ENU (idents E and F).
176 kg of idents A and B and 75 kg of idents C, D, E and F were sown on an approximately 15 ha spanning field site. Approximately 1 month after sowing, the entire field was sprayed with 0.88 I/ha ROUNDUP® MAX (680 g/kg glyphosate acid equivalent). Approximately 6 weeks later, plants surviving the glyphosate treatment were collected in the field, transplanted to pots and further cultivated in the greenhouses. Surviving plants were treated with 600 g/ha glyphosate acid equivalent about 2 months later. 172 plants survived that treatment in a very healthy stage without any signs of herbicide damage.
In order to identify the causative mutation behind the observed herbicide resistance sequencing analyses have been performed. […]

Structure (SMILES): O=C(O)CNCP(=O)(O)O [glyphosate, N-phosphonomethylglycine]
- solubility in water [1]: 1.16 % by weight
- resistance conferred by heterozygous P179S mutation in BvEPSPS ([2]; approx. 50% of standard field treatment level, based on screening and selection): complete resistance
- plants that survived treatment in a very healthy stage without any signs of herbicide damage ([2]; potted greenhouse plants that had survived the ROUNDUP MAX field spray): 172 plants
